Earlier results as cited in patent US20120093932A1, “TARGETED SUSTAINED-RELEASE MICROSPHERE OF VASCULAR OCCLUSIVE AGENT CONTAINING SODIUM ALGINATE AND SORAFENIB, PRODUCTION METHOD AND USE THEREOF” (Beijing Shengyiyao Science & Technology Development Co., …, priority 2009, published 2012).

How the values were obtained:
[1] = not given; remark: listed apart in the source
[2] = oral single dose, solution containing 100 mg sorafenib
[3] = oral administration
[4] = 400 mg orally twice a day; Phase I

SMILES: CNC(=O)c1cc(Oc2ccc(NC(=O)Nc3ccc(Cl)c(C(F)(F)F)c3)cc2)ccn1.Cc1ccc(S(=O)(=O)O)cc1 [sorafenib tosylate]
- solubility in alcohol (alcohol): slightly soluble
- solubility in aqueous solution (aqueous solution, becomes higher a little bit under strongly acid condition): low
- solubility in polyethylene glycerol 400 (polyethylene glycerol 400): can be dissolved

SMILES: [O-][n+]1ccccc1 [pyridine N-Oxide]
- role in vitro compared to sorafenib [1]: plays a similar role to sorafenib

SMILES: CNC(=O)c1cc(Oc2ccc(NC(=O)Nc3ccc(Cl)c(C(F)(F)F)c3)cc2)ccn1 [sorafenib, 4-{4-[3-(4-chloro-3-trifluoro-phenyl)-ureido]-phenoxyl}-pyridine-2-carboxylic methylamine]
- excreted as glucuronic acid metabolic products in urine [2]: 19%
- excreted unchanged (faeces) ([2]; within 14 days): 15%
- sorafenib excreted in the faeces ([2]; within 14 days): 77%
- side effects: diarrhea [3]: 58%
- side effects: gastrointestinal response [3]: 95%
- side effects: indigestion accompanied by appetite loss [3]: 47%
- side effects: nausea [3]: 30%
- side effects: vomiting [3]: 24%
- tolerability and effectiveness [4]: tolerated and effective
